Measurements: the METLIN SMRT retention time set (Domingo-Almenara et al. 2019)

Assay: gradient 5% acetonitrile 3 min, to 50% in 2 min, to 85% in 15 min, held 3 min, 100 µL/min
Details: column: Zorbax Extend-C18 2.1 x 50 mm; eluents: water / acetonitrile, 0.1% formic acid
How it was run: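 Retention time was recorded from adduct peaks, which were picked computationally and each inspected manually. Pure standards ran in mixtures of ~100 molecules on HPLC coupled to a quadrupole time-of-flight mass spectrometer, in positive and negative ionization mode, through a Zorbax Extend-C18 column (2.1 × 50 mm, 1.8 μm) at 100 μL/min. Eluents were water and acetonitrile, each with 0.1% formic acid.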

COc1ccc(-c2ncc3c(n2)CCN(S(=O)(=O)c2cccc(Cl)c2)C3)cc1
RP-LC retention time: 1100 s

O=S(=O)(c1cccc2cccnc12)N1CCc2nc(-c3ccc(F)cc3)ncc2C1
RP-LC retention time: 1000 s

O=C(Nc1ccc2c(c1)OCO2)c1cn(-c2cc(N3CCCCC3)ncn2)cn1
RP-LC retention time: 936 s

COc1ccc(C(=O)Nc2nnc(C3CC(=O)N(c4ccc(Cl)cc4)C3)o2)cc1 (stereo not drawn)
RP-LC retention time: 773 s

Cc1ccc(CNS(=O)(=O)c2cc3n(c2)CCCNC3=O)cc1
RP-LC retention time: 658 s

O=C(NCC1CN(CC2CC2)CC12CCCCC2)Nc1ccc(F)cc1 (stereo not drawn)
RP-LC retention time: 687 s

CCOC(=O)C1CCC(CNC(=O)Nc2cc3c(cc2N2CCCCC2)n(C)c(=O)n3C)CC1 (stereo not drawn)
RP-LC retention time: 689 s

Cc1[nH]c(C(=O)N2CCC(CC(=O)NCCCN3CCC(N4CCCCC4)CC3)CC2)c(C)c1C
RP-LC retention time: 575 s

COc1ccccc1NC(=O)c1sc(-c2cn(C)c3ncccc23)nc1C
RP-LC retention time: 1060 s

C=CC(=O)Nc1cccc(Sc2nc(Nc3ccc(N4CCN(C)CC4)cc3)ncc2Cl)c1
RP-LC retention time: 754 s

Cc1cn(C2CC(O)C(CO)O2)c(=O)n(Cc2ccccc2)c1=O (stereo not drawn)
RP-LC retention time: 697 s

Cc1c(CN2CCN(C(=O)[C@H](C)O)CC2)sc2c(N3CCOCC3)nc(-c3cnc(N)nc3)nc12
RP-LC retention time: 612 s

COc1cc(NC(=O)Cn2c(=O)nc(N3CCC(C)CC3)c3ccccc32)cc(OC)c1
RP-LC retention time: 798 s

CCc1ccc(S(=O)(=O)NCC(c2cccs2)N2CCOCC2)s1 (stereo not drawn)
RP-LC retention time: 644 s

O=C(Cc1ccc(Br)cc1)NCC(=O)N1CCCc2ccccc21
RP-LC retention time: 876 s

Cc1ccc(N2CCC(NC(=O)Cc3cccs3)C2=O)cc1 (stereo not drawn)
RP-LC retention time: 827 s

COCCN1CC2(CCN(S(=O)(=O)c3cccc(Cl)c3)CC2)C1c1ccccc1 (stereo not drawn)
RP-LC retention time: 730 s

COc1ccc(-c2nnc(-c3ccccc3)o2)cc1S(=O)(=O)NC(C)C
RP-LC retention time: 870 s

Cc1cc(F)ccc1NC(=O)Cn1c(N)nc(C)c(C)c1=O
RP-LC retention time: 617 s

CS(=O)(=O)N1CCC(OC2CCN(C(=O)c3cccnc3)CC2)CC1
RP-LC retention time: 583 s

CC1CCCCN1CCNC(=O)c1cc(=O)n2c(nc3ccccc32)s1 (stereo not drawn)
RP-LC retention time: 626 s

CC(C)c1nccn1C1CN(C(=O)C(C)c2ccccc2)C1 (stereo not drawn)
RP-LC retention time: 612 s

Cc1nnc(-c2cc3ccccc3n2CC(=O)Nc2ccc(C(F)(F)F)cc2)o1
RP-LC retention time: 966 s

CCCCOc1ccc(CNC(=O)C2CCCN(c3nccc(C)n3)C2)cc1 (stereo not drawn)
RP-LC retention time: 930 s

COC(=O)c1cc2c(=O)n(-c3nc4ccc(Cl)cc4s3)ccc2nc1C
RP-LC retention time: 1350 s

CCCn1nnc2cc(-c3noc(C4CC(=O)N(c5cccc(Cl)c5)C4)n3)ccc21 (stereo not drawn)
RP-LC retention time: 994 s

O=C(c1cn[nH]c1)N1CCC(c2nc(CCOCC3CCCC3)no2)C1 (stereo not drawn)
RP-LC retention time: 717 s

CCOC(=O)C1CCN(C(=O)c2cn3c(n2)CCCC3)CC1
RP-LC retention time: 586 s

Cc1cc(C(=O)N2CCC3(CC2)CC(O)CCO3)c(C)o1 (stereo not drawn)
RP-LC retention time: 624 s

Cc1cc(C)cc(NC(=O)N2CCC(n3cnc4ccc(F)cc4c3=O)CC2)c1
RP-LC retention time: 861 s

CCNC(=O)C1CCCN(c2nc3ncn(CC(=O)Nc4ccc(C)cc4C)c(=O)c3s2)C1 (stereo not drawn)
RP-LC retention time: 711 s

Cc1ccccc1C(=O)Nc1ccc(C(=O)N2CCCC(N(C)C)c3ccccc32)cc1 (stereo not drawn)
RP-LC retention time: 712 s

COc1ccc(C(=O)Nc2nnc(SCc3nnc(-c4ccccc4C)o3)s2)cc1
RP-LC retention time: 966 s

O=C(Nc1ccc(F)cc1)C1CCCN(c2ncnc3c2nc2n3CCCCC2)C1 (stereo not drawn)
RP-LC retention time: 803 s

CCCOc1nc2ccccc2nc1N1CCCC(C(=O)NCc2ccco2)C1 (stereo not drawn)
RP-LC retention time: 1100 s

CCOC(=O)c1ccc(NC(=O)CSc2nnc(-c3cccn(CC)c3=O)n2C)cc1
RP-LC retention time: 794 s

Cc1cc(C)n(CCNC(=O)c2ccc3nsnc3c2)n1
RP-LC retention time: 638 s

O=C(NCc1ccc(F)cc1)c1ccnc(N2CCNC(c3ccccc3)C2)c1 (stereo not drawn)
RP-LC retention time: 635 s

O=C(NCc1ccccc1)C1CC(=O)N(C2CN(Cc3ccc(C(F)(F)F)cc3)C2)C1 (stereo not drawn)
RP-LC retention time: 666 s

Oc1ccc(-c2nc3ncccn3c2Nc2cccc(C(F)(F)F)c2)cc1
RP-LC retention time: 764 s

CNCc1ccc(-c2cccc(C(F)(F)F)c2)o1
RP-LC retention time: 673 s

O=C(CCNc1cnc2cnccn12)NCc1ccc(C(F)(F)F)cc1
RP-LC retention time: 611 s

CC(=O)N1CCc2cc(CNS(=O)(=O)c3ccccc3F)ccc21
RP-LC retention time: 738 s

CCOCCCNC(=O)N1CC(Oc2ccc(-c3nc(-c4ccccc4)no3)cc2)C1
RP-LC retention time: 985 s

O=C(NC1(c2nc(-c3ccncc3)no2)CCCCC1)c1ccccc1F
RP-LC retention time: 911 s

O=C(NC1CCN(Cc2ccccc2)CC1)c1nnc(-c2ccc(S(=O)(=O)N3CCCC3)cc2)o1
RP-LC retention time: 1190 s

Cc1ccc(-n2c(=O)n(C)c(=O)c3cc(C(=O)Nc4ccccc4)cnc32)cc1
RP-LC retention time: 926 s

CCc1ccc(Nc2c(C(=O)N3CCC(C)CC3)cnc3nc(C)ccc23)cc1
RP-LC retention time: 699 s

COc1ccc(NS(=O)(=O)c2cc(-c3cc(C(F)(F)F)on3)sc2C)cc1OC
RP-LC retention time: 1020 s

Cn1c(=O)n(C)c2cc(N3CCCCC3)c(NC(=O)c3cccs3)cc21
RP-LC retention time: 890 s

CCOC(=O)c1cc(S(=O)(=O)N2CC3CC(C2)c2cccc(=O)n2C3)cn1C (stereo not drawn)
RP-LC retention time: 704 s

COC(=O)c1ccc2c(=O)n(-c3ccc4c(c3)OCO4)c(N3CCN(c4ccccn4)CC3)nc2c1
RP-LC retention time: 660 s

COc1ccc(OC)c(-c2ccc(=O)n(CCNC(=O)C(C)Oc3ccccc3F)n2)c1 (stereo not drawn)
RP-LC retention time: 754 s

Cc1cccc(NC(=O)C2CCc3nc(N4CCOCC4)ncc3C2)c1 (stereo not drawn)
RP-LC retention time: 786 s

Cn1nccc1C(=O)N1CCc2c(c(CO)nn2Cc2ccccc2)C1
RP-LC retention time: 630 s

O=C(CCc1c(-c2ccc(Cl)cc2)nc2ccccn12)NCc1ccccc1F
RP-LC retention time: 688 s

COc1cccc(CNC(=O)Nc2c(-c3ccc(F)cc3)nc3ccccn23)c1
RP-LC retention time: 652 s

Cc1cc(NC(=O)NC2CCN(c3nc4ccccc4n(C)c3=O)CC2)ccc1Br
RP-LC retention time: 1050 s

C[C@H](NC(=O)C(C)(C)Oc1ccc(C(F)(F)F)cn1)[C@@H](Cc1ccc(Cl)cc1)c1cccc(C#N)c1
RP-LC retention time: 1320 s

CCc1nnc(C2CCN(S(=O)(=O)c3cccnc3)CC2)s1
RP-LC retention time: 652 s

CC(=O)N1CCc2cc(N3CC(C(=O)Nc4cccc(Cl)c4)CC3=O)ccc21 (stereo not drawn)
RP-LC retention time: 738 s

O=C(NCc1ccc2c(c1)OCO2)C(=O)NCC1CCN(S(=O)(=O)C2CC2)CC1
RP-LC retention time: 711 s

CCN(CC)S(=O)(=O)c1cc(-c2nnc(-c3ccccc3OC)o2)ccc1C
RP-LC retention time: 1030 s

COc1ccc(CNC(=O)C(C)n2ccc3cc(S(=O)(=O)N4CCCCC4)ccc32)c(OC)c1 (stereo not drawn)
RP-LC retention time: 959 s

COc1cccc(-c2noc(Cn3ccn(-c4ccc(Cl)cc4)c(=O)c3=O)n2)c1OC
RP-LC retention time: 824 s

CCCOc1nn(CCC)cc1C(=O)N1CCC(C(=O)OC)CC1
RP-LC retention time: 736 s

CCOC(=O)c1noc2nc(C)nc(NCCCN3CCN(c4ccccc4)CC3)c12
RP-LC retention time: 668 s

Cc1oc(-c2cccc(Cl)c2)nc1Cn1nnc(-c2nc(-c3ccc(F)cc3)no2)c1C
RP-LC retention time: 869 s

CCOc1ccc(-c2noc(CN3C(=O)COc4cc(Cl)ccc43)n2)cc1OC
RP-LC retention time: 1080 s

O=C(c1ccc(F)c(F)c1)N1CCN(c2cc(-c3ccc(Cl)cc3)[nH]n2)CC1
RP-LC retention time: 900 s

CN1C(=O)Cc2cc(C(=O)NC3CCCC3)ccc21
RP-LC retention time: 665 s

CCOC(=O)c1noc2nc(C)nc(NCC3CCN(Cc4ccc(F)cc4)CC3)c12
RP-LC retention time: 666 s

Cc1ccc(S(=O)(=O)N2CC(=O)N(c3ccc(F)cc3)C(C)(C(=O)NCc3ccccc3)C2)cc1 (stereo not drawn)
RP-LC retention time: 968 s

CCC(C)NC(=O)N1CCCN(C2=NS(=O)(=O)C(c3ccc(C)cc3)=C2C)CC1 (stereo not drawn)
RP-LC retention time: 816 s

Cc1ccc(-n2c(=O)c3c(cc(C)n3C)n(CC(=O)Nc3ccccc3)c2=O)cc1
RP-LC retention time: 834 s

Cc1ccsc1C(=O)NCC1CN(C(C)C)CC12CCCCC2 (stereo not drawn)
RP-LC retention time: 652 s

CN1CCCCc2cc(C(=O)NCCN(C)C3CCCCC3)sc21
RP-LC retention time: 687 s

COc1ccc(OC)c(NC(=O)Nc2c(-c3cccc(C)c3)nc3ccccn23)c1
RP-LC retention time: 696 s

CCc1nnc2c(=O)n(CC(=O)NCc3ccc(F)cc3)c3cccnc3n12
RP-LC retention time: 698 s

COc1ccc(-c2ccc(S(=O)(=O)NCc3ccc(C(=O)O)cc3)cc2)cc1
RP-LC retention time: 801 s

COCCn1c(CCCC(=O)NCc2cccnc2)nc2cccnc21
RP-LC retention time: 534 s

O=C(NCc1ccc(F)cc1Cl)C1CCCN(c2ncnc3c2oc2ccccc23)C1 (stereo not drawn)
RP-LC retention time: 802 s

C=CCN1C(=O)COc2ccc(-c3csc(NC(=O)C4CC4)n3)cc21
RP-LC retention time: 842 s

CCc1ccc(NC(=O)C2CCCN(S(=O)(=O)c3cc(-c4noc(CC)n4)cs3)C2)cc1 (stereo not drawn)
RP-LC retention time: 1110 s

CCn1nccc1-c1cccc(-c2noc(-c3ccsc3)n2)c1
RP-LC retention time: 1130 s

CC(C)CCN1CCC(N2CCN(S(=O)(=O)Cc3ccc(F)cc3Cl)CC2)C1=O (stereo not drawn)
RP-LC retention time: 682 s

COC(=O)C1CCN(C(=O)Cc2csc(Nc3ccc(F)cc3)n2)CC1
RP-LC retention time: 689 s

Cc1noc(C)c1CC(=O)N1CCc2nn(CC3CC3)c(=O)n2CC1
RP-LC retention time: 626 s
